Test results reported in US10105367B2, “Therapeutic thiophene-, furan-, and pyridine-fused azolopyrimidin-5-(6h)-ones” (Dart Neuroscience (Cayman) Ltd., priority 2012, dated 2018).

Biological target: human PDE1B (Homo sapiens (Human), UniProt Q01064)
Assay: PDE1B inhibitory assay (IMAP TR-FRET)
Conditions: 200 nM FAM-cAMP, Calmodulin, CaCl2; for PDE1B pIC50: negative log of half-maximal molar inhibitory concentration; for IC50: PDE1B pIC50, negative log of half-maximal molar inhibitory concentration

SMILES | PDE1B pIC50 | IC50 [µM]
COc1ccc(Cn2c(=O)n3ncnc3c3cc(CN4CCN(S(=O)(=O)N(C)C)CC4)cnc32)cc1 [Example 253] | >7 | –
COc1ccc(Cn2c(=O)n3ncnc3c3cc(CN4C[C@@H](C)O[C@@H](C)C4)cnc32)c(Cl)c1 [Example 296] | – | 0.1 to 1
COc1ccc(Cn2c(=O)n3ncnc3c3cc(CN4CCC(OC)CC4)cnc32)cc1 [Example 236] | – | 0.1 to 1
COc1ccc(Cn2c(=O)n3ncnc3c3ccc(CN(C)CC4CCOC4)nc32)cc1 (stereo not drawn) [Example 259] | – | 0.1 to 1
CCN1CCN(Cc2sc3c(c2C)c2ncnn2c(=O)n3Cc2ccc(OC)cc2)CC1=O [Example 66] | >7 | –
COc1ccc(Cn2c(=O)n3ncnc3c3cc(CN4CCOCC4)sc32)cc1 [Example 31] | >7 | –
O=c1n(Cc2ccc(Cl)c(Cl)c2)c2sc3c(c2c2ncnn12)CCOC3 [Example 91] | – | 0.1 to 1
COc1ccc(Cn2c(=O)n3ncnc3c3cc(Br)cnc32)cc1 [Example 185, 9-Bromo-6-(4-methoxybenzyl)pyrido[3,2-e][1,2,4]triazolo[1,5-c]pyrimidin-5(6H)-one] | – | 0.1 to 1
COc1ccc(Cn2c(=O)n3ncnc3c3cc(CN4CCCOCC4)sc32)cc1 [Example 29, 8-((1,4-Oxazepan-4-yl)methyl)-6-(4-methoxybenzyl)thieno[3,2-e][1,2,4]triazolo[1,5-c]pyrimidin-5(6H)-one] | >7 | –
COCCN(C)Cc1cnc2c(c1)c1ncnn1c(=O)n2Cc1ccc(OC)cc1 [Example 245] | – | 0.1 to 1
COc1ccc(Cn2c(=O)n3ncnc3c3c4c(sc32)CN(Cc2ccc(F)cc2)CC4)cc1 [Example 127] | >7 | –
COc1ccc(Cn2c(=O)n3ncnc3c3c4c(sc32)CN(CC2CCOCC2)CCC4)cc1 [Example 147] | >7 | –
COc1ccc(Cn2c(=O)n3ncnc3c3c(C)c(CN(CCO)Cc4ccccc4)sc32)cc1 [Example 48] | >7 | –
COc1ccc(Cn2c(=O)n3ncnc3c3c4c(sc32)CN(C(=O)C2CCOC2)CC4)cc1 (stereo not drawn) [Example 170] | >7 | –
O=C(c1cnccn1)N1CCc2c(sc3c2c2ncnn2c(=O)n3Cc2ccc(Cl)cc2)C1 [Example 157, 6-(4-Chlorobenzyl)-9-(pyrazine-2-carbonyl)-8,9,10,11-tetrahydropyrido[4′,3′:4,5]thieno[3,2-e][1,2,4]triazolo[1,5-c]pyrimidin-5(6H)-one] | >7 | –
C[C@@H]1CN(Cc2cnc3c(c2)c2ncnn2c(=O)n3Cc2ccccc2OC(F)F)C[C@H](C)O1 [Example 297] | <5 | –
COc1ccc(Cn2c(=O)n3ncnc3c3ncc(Br)cc32)cc1 [Example 186] | – | 1 to 10
COc1ccc(Cn2c(=O)n3ncnc3c3c(C)c(CN4CCOC(C)(C)C4)sc32)cc1 [Example 69] | >7 | –
COc1ccc(Cn2c(=O)n3ncnc3c3ncc(CN4CCN(C)CC4)cc32)cc1 [Example 240] | – | 1 to 10
COc1ccc(Cn2c(=O)n3ncnc3c3cc(CN4CCCOCC4)cnc32)cc1 [Example 233] | – | 0.1 to 1
COc1ccc(Cn2c(=O)n3ncnc3c3nc(CN4C[C@@H](C)O[C@@H](C)C4)cnc32)cc1 [Example 231] | – | 0.1 to 1
COc1ccc(Cn2c(=O)n3ncnc3c3cc(C(F)CN4C[C@@H](C)O[C@@H](C)C4)cnc32)cc1 (stereo partly drawn) [Example 270] | >7 | –

SMILES | PDE1B pIC50 | IC50 [µM]
O=c1n(Cc2ccc(Cl)cc2)c2sc3c(c2c2ncnn12)CCNC3 [Example 99, 6-(4-Chlorobenzyl)-8,9,10,11-tetrahydropyrido[4′,3′:4,5]thieno[3,2-e][1,2,4]triazolo[1,5-c]pyrimidin-5(6H)-one] | – | 1 to 10
COc1ccc(Cn2c(=O)n3ncnc3c3cc(CCNC4CCOCC4)cnc32)cc1 [Example 212, 6-(4-Methoxybenzyl)-9-(2-(tetrahydro-2H-pyran-4-ylamino)ethyl)pyrido[3,2-e][1,2,4]triazolo[1,5-c]pyrimidin-5(6H)-one] | – | 1 to 10
COc1ccc(Cn2c(=O)n3ncnc3c3cc(N4C[C@@H](C)O[C@@H](C)C4)cnc32)cc1 [Example 201] | – | 0.1 to 1
COc1ccc(Cn2c(=O)n3ncnc3c3cc(N4CCN(C5CC5)CC4)cnc32)cc1 [Example 193, 9-(4-Cyclopropylpiperazin-1-yl)-6-(4-methoxybenzyl)pyrido[3,2-e][1,2,4]triazolo[1,5-c]pyrimidin-5(6H)-one] | – | 0.1 to 1
COc1ccc(Cn2c(=O)n3ncnc3c3c(C)c(CN4CCN(C)C(C)(C)C4)sc32)cc1 [Example 74] | >7 | –
COc1ccc(Cn2c(=O)n3ncnc3c3c4c(sc32)CN(C(=O)[C@@H]2CCOC2)CC4)cc1 [Example 169] | >7 | –
COc1ccc(Cn2c(=O)n3ncnc3c3cc(CN4CC5CCC(C4)O5)cnc32)cc1 [Example 227] | – | 0.1 to 1
Cc1cc2c(s1)n(Cc1ccc(-c3ccccc3)cc1)c(=O)n1ncnc21 [Example 14] | <5 | –
Cc1cc2c(s1)n(Cc1ccc(Cl)cc1)c(=O)n1ncnc21 [Example 15] | – | 0.1 to 1
COc1ccc(Cn2c(=O)n3ncnc3c3cc(CN(C)C4CCCCC4)cnc32)cc1 [Example 235] | – | 1 to 10
COc1ccc(Cn2c(=O)n3ncnc3c3cc(CN4CCOC(C)(C)C4)cnc32)cc1 [Example 223] | – | 0.1 to 1
COc1ccc(Cn2c(=O)n3ncnc3c3c4c(sc32)CN(CC2CNCCO2)CC4)cc1 (stereo not drawn) [Example 180, 6-(4-Methoxybenzyl)-9-(morpholin-2-ylmethyl)-8,9,10,11-tetrahydropyrido[4′,3′:4,5]thieno[3,2-e][1,2,4]triazolo[1,5-c]pyrimidin-5(6H)-one] | – | 0.1 to 1
COc1ccc(Cn2c(=O)n3ncnc3c3c4c(sc32)N(Cc2ccc(Cl)cc2)CCC4)cc1 [Example 152] | – | 0.1 to 1
O=c1n(Cc2ccc(Cl)cc2)c2sc(Cc3ccccc3)cc2c2ncnn12 [Example 22] | – | 0.1 to 1
CC(C)CCc1cc2c(s1)n(Cc1ccc(-c3ccccc3)cc1)c(=O)n1ncnc21 [Example 21] | <5 | –
COc1ccc(Cn2c(=O)n3ncnc3c3nc(N(C)CCN(C)C)cnc32)cc1 [Example 196] | – | 1 to 10
COc1ccc(Cn2c(=O)n3ncnc3c3c4c(sc32)CN(CCCS(C)(=O)=O)CC4)cc1 [Example 118] | >7 | –
COc1ccc(Cn2c(=O)n3ncnc3c3c4c(sc32)CN(Cc2ccccc2F)CC4)cc1 [Example 128] | >7 | –
COc1ccc(Cn2c(=O)n3ncnc3c3cc(CN(C)C)sc32)cc1 [Example 30] | – | 0.1 to 1
CCC1CN(Cc2cnc3c(c2)c2ncnn2c(=O)n3Cc2ccc(OC)cc2)CCO1 (stereo not drawn) [Example 224] | >7 | –
COc1ccc(Cn2c(=O)n3ncnc3c3cc(CN4CCCCC4)cnc32)cc1 [Example 206] | – | 0.1 to 1
CC(C)CCc1cc2c(s1)n(Cc1cccc(Cl)c1)c(=O)n1ncnc21 [Example 20] | – | 1 to 10

SMILES | PDE1B pIC50 | IC50 [µM]
COc1cc(F)c(Cn2c(=O)n3ncnc3c3cc(CN4C[C@@H](C)O[C@@H](C)C4)cnc32)c(F)c1 [Example 287] | >7 | –
COc1ccc(Cn2c(=O)n3ncnc3c3ccsc32)cc1 [Example 27] | – | 0.1 to 1
COc1ccc(Cn2c(=O)n3ncnc3c3c(C)c(CN4CCN(C(C)=O)CC4)sc32)cc1 [Example 51] | >7 | –
COc1ccc(Cn2c(=O)n3ncnc3c3c(C)c(CN4CCCOCC4)sc32)cc1 [Example 61] | >7 | –
COc1ccc(Cn2c(=O)n3ncnc3c3cc(CN4CCCN(C(C)=O)CC4)cnc32)cc1 [Example 234] | – | 0.1 to 1
O=c1n(Cc2cccc(Cl)c2)c2sc(Cc3ccccc3)cc2c2ncnn12 [Example 9] | – | 0.1 to 1
Cc1sc2c(c1C)c1ncnn1c(=O)n2Cc1ccc(Cl)cc1 [Example 26] | – | 0.1 to 1
COc1ccc(Cn2c(=O)n3ncnc3c3c4c(sc32)CN(CC2CCCOC2)CC4)c(F)c1 (stereo not drawn) [Example 142] | >7 | –
C[C@@H]1CN(Cc2cnc3c(c2)c2ncnn2c(=O)n3Cc2ccc(Cl)cc2)C[C@H](C)O1 [Example 210] | – | 0.1 to 1
COc1ccc(Cn2c(=O)n3ncnc3c3c4c(sc32)CN(CC2CCOC2)CCC4)cc1 (stereo not drawn) [Example 143] | >7 | –
O=c1n(Cc2ccc(Cl)cc2)c2ncc(CN3CCOCC3)cc2c2ncnn12 [Example 208] | – | 0.1 to 1
COc1ccc(Cn2c(=O)n3ncnc3c3cc(CN4CCN(S(C)(=O)=O)CC4)sc32)cc1 [Example 35] | >7 | –
COc1ccc(Cn2c(=O)n3ncnc3c3c4c(sc32)CN(Cc2nccn2C)CC4)c(F)c1 [Example 138] | >7 | –
COc1ccc(Cn2c(=O)n3ncnc3c3cc(CN4CCNCC4)cnc32)cc1 [Example 249, 6-(4-Methoxybenzyl)-9-(piperazin-1-ylmethyl)pyrido[3,2-e][1,2,4]triazolo[1,5-c]pyrimidin-5(6H)-one] | – | 1 to 10
COc1ccc(Cn2c(=O)n3ncnc3c3cc(CN4CCN(C(=O)C(F)(F)F)CC4)cnc32)cc1 [Example 254] | – | 0.1 to 1
COc1ccc(Cn2c(=O)n3ncnc3c3c(C)c(CN(C)C)sc32)cc1 [Example 45] | >7 | –
COc1ccc(Cn2c(=O)n3ncnc3c3c(C)c(CN4C[C@@H](C)N[C@@H](C)C4)sc32)cc1 [Example 72] | – | 0.1 to 1
COc1ccc(Cn2c(=O)n3ncnc3c3cc(C(F)CN4CCOCC4)cnc32)cc1 (stereo not drawn) [Example 269, 9-(1-Fluoro-2-morpholinoethyl)-6-(4-methoxybenzyl)pyrido[3,2-e][1,2,4]triazolo[1,5-c]pyrimidin-5(6H)-one] | – | 0.1 to 1
COc1ccc(Cn2c(=O)n3ncnc3c3c(C)c(CN4CCNCC4)sc32)cc1 [Example 49] | – | 0.1 to 1
COc1ccc(Cn2c(=O)n3ncnc3c3c(C)csc32)cc1 [Example 28] | – | 0.1 to 1
O=c1n(Cc2ccc(C(F)(F)F)cc2)c2sc3c(c2c2ncnn12)CCOC3 [Example 89] | – | 1 to 10
COc1ccc(Cn2c(=O)n3ncnc3c3c4c(sc32)CN(C(=O)OC(C)(C)C)CC4)cc1 [Example 80, tert-Butyl 6-(4-methoxybenzyl)-5-oxo-5,6,10,11-tetrahydropyrido[4′,3′:4,5]thieno[3,2-e][1,2,4]triazolo[1,5-c]pyrimidine-9(8H)-carboxylate] | >7 | –
